In series [1] the test system is MDA-MB-468. Nature of the series: Cytotoxicity MTT/MTS assay, MDA-MB-468. The class given is cell-based. Conditions: MDA-MB-468 (TNBC) cells. From the text: (§1) FIG. 4A-C depicts the cytotoxicity of PDoxC, obtained by […], for three cell lines (MDA-MB-231 [FIG. 4A], MDA-MB-468 [FIG. 4B], and MCF-10A [FIG. 4C]). Cell viability is plotted against drug concentration (PDoxC or Dox) to obtain IC50 values. Each experimental point was done in duplicates or triplicates and the experiment was repeated once.
(§2) Next, the cytotoxicity of the peptide 31 PDoxC was compared to the DOX (free drug) using MTS assay (FIG. 4A-C). Three cell lines were used, two TNBC cell lines (MDA-MB-231 and MDA-MB-468) and one non-cancerous mammary epithelial MCF-10A cell line. […] This peptide 31 PDoxC is very promising as this level of selectivity has never been observed with previously reported peptide-drug conjugates.
Background: Formazan colour is commonly taken as a measure of viable cells.

Series [2] deals with MCF-10A. Nature of the series: Cytotoxicity MTT/MTS assay, MCF-10A. The class given is cell-based. Particulars: MCF-10A non-cancerous mammary epithelial cells; highest tested concentration 25 μM.
From the text: as §1, §2

A short description of series [3]: Stability of peptide GE11 in human serum at 37° C. (RP-HPLC). Type of series: in vitro ADME. The protocol:
Peptide was incubated with human serum at 37° C., and aliquots were removed at different time intervals for HPLC analysis.
Peptides show low proteolytic stability when administered systemically and must be stabilized for clinical application. […] The three N-terminal amino acids (1Y, 2H, 3W) were cleaved sequentially by proteolysis, giving three fragments (A, B, and C, Table 2)) that appear in the HPLC chromatograms. […] Therefore, blocking the N-terminus of the peptide with a chemotherapeutic drug yields a stable conjugate.

The nature of series [4]: Stability of PDoxC in human serum at 37° C. (RP-HPLC). Particulars: HPLC peak AUC. The class given is in vitro ADME. As to the method:
(§3) FIG. 3 depicts the stability of the PDoxC in the presence of human or mouse serum at 37° C. The PDoxC was incubated with human or mouse serum and aliquots were removed at different time intervals for HPLC analysis. The AUC for PDoxC peak was used to calculate the percent intact at different time points.
(§4) The stability of the peptide 31 PDoxC was evaluated by incubating it with human or mouse serum at 37° C. (FIG. 3). Aliquots were removed at regular intervals to analyze the PDoxC using RP-HPLC.

Series [5] is described as follows: Stability of PDoxC in mouse serum at 37° C. (RP-HPLC). Type of series: in vitro ADME. Conditions: HPLC peak AUC. The protocol: as §3, §4
The test system of series [6] is MDA-MB-231. The experiment in a line: Cytotoxicity MTT/MTS assay, MDA-MB-231. Type of series: cell-based. Conditions: MDA-MB-231 (TNBC) cells.
From the text: as §1, §2

In series [7] the test system is TNBC cells (MDA-MB-468, 231, and 436). The experiment in a line: SPOT peptide array library screen for binding to TNBC cells versus normal breast cells. Particulars: peptide array incubated with TNBC cells (MDA-MB-468, 231, 436) or normal breast cells (MCF-10A, 12A); relative to lead GE11. The class given is cell-based. As to the method: A library of 30 peptide sequences (in duplicates, total 60 peptides) was synthesized in an array format on functionalized cellulose membrane using SPOT synthesis. The peptide library was screened for identifying EGFR binding peptide in TNBC cells by incubating the library with TNBC cells (MDA-MB-468, 231, and 436) or normal breast (MCF-10A and 12A) cells.

The test system of series [8] is EGFR expressing TNBC cells (MDA-MB-231 and MDA-MB-468). Nature of the series: Peptide uptake by EGFR expressing TNBC cells. The class given is cell-based. From the text: (§5) The specific binding and uptake of peptide 22 (FITC labeled peptide) by EGFR in TNBC cells was confirmed by competition assay using flow cytometry.
The test system of series [9] is noncancerous mammary epithelial cells (MCF-10A and MCF12A). Nature of the series: Peptide uptake by noncancerous mammary epithelial cells. Type of series: cell-based.
Series [10] relates to EGFR in MDA-MB-231 cells. Nature of the series: EGF competition assay of FITC labeled peptide uptake by flow cytometry. Type of series: cell-based.
From the text: as §5
In general terms: A flow cytometer gives signals particle by particle.

For series [11], the target named is T1, epidermal growth factor receptor (EGFR) on TNBC cells (UniProt P00533 25-1210, limits assumed).
T1 construct: whole, on cells; also called ErbB1
The experiment in a line: SPOT peptide array on cellulose membrane incubated with TNBC cells (MDA-MB-468, 231, 436) or normal breast cells.

Where a SMILES comes first, the peptide text is derived from it. The star is where a group is joined. X1 = COc1cccc2c1C(=O)c1c(O)c3c(c(O)c1C2=O)C[C@@](O)(C(=O)CO)C[C@@H]3O[C@H]1C[C@H](NC(=O)C2CCC(CN3C(=O)CC(*)C3=O)CC2)[C@H](O)[C@H](C)O1

In general, IC50 refers to the concentration that inhibits the measured activity by half. A higher IC50 goes with lower potency. As usually defined, the share remaining is what is left of the initial amount, in per cent. Read a low share remaining as more turnover. In general, half-life refers to how long it takes for the measured level to halve.

Turning to `COc1cccc2c1C(=O)c1c(O)c3c(c(O)c1C2=O)C[C@@](O)(C(=O)CO)C[C@@H]3O[C@H]1C[C@H](N)[C@H](O)[C@H](C)O1` [Free Dox, doxorubicin, reference compound], the IC50 was found to be 570 nM in [1] and 1410 nM in series [2].
As for `CC[C@H](C)[C@H](NC(=O)[C@@H](NC(=O)[C@H](CC(N)=O)NC(=O)[C@H](CCC(N)=O)NC(=O)[C@@H]1CCCN1C(=O)[C@@H](NC(=O)[C@H](Cc1ccc(O)cc1)NC(=O)CNC(=O)[C@H](Cc1ccc(O)cc1)NC(=O)[C@H](Cc1c[nH]c2ccccc12)NC(=O)[C@H](Cc1c[nH]cn1)NC(=O)[C@@H](N)Cc1ccc(O)cc1)[C@@H](C)O)C(C)C)C(=O)O` [GE11], the “% Intact GE11” value in series [3] (0 h) is 100%. In addition, in series [3] (1 h), the fraction remaining at 1 h is 49%. The share remaining at 3 h in series [3] (3 h) was found to be 18%. Further, in series [3] (7 h), the “% Intact GE11” value stood at 2% and the fraction remaining at 7 h is 2%.
`CC[C@H](C)[C@H](NC(=O)[C@@H](NC(=O)[C@H](CCCNC(=N)N)NC(=O)[C@H](CCC(=O)O)NC(=O)[C@@H]1CCCN1C(=O)[C@@H](NC(=O)[C@H](Cc1ccc(O)cc1)NC(=O)CNC(=O)[C@H](Cc1ccc(O)cc1)NC(=O)[C@H](Cc1c[nH]c2ccccc12)NC(=O)[C@H](Cc1c[nH]cn1)NC(=O)[C@H](Cc1ccc(O)cc1)NC(=O)[C@@H](N)CSC1CC(=O)N(CC2CCC(C(=O)N[C@H]3C[C@H](O[C@H]4C[C@](O)(C(=O)CO)Cc5c(O)c6c(c(O)c54)C(=O)c4c(OC)cccc4C6=O)O[C@@H](C)[C@H]3O)CC2)C1=O)[C@@H](C)O)C(C)C)C(=O)O` (some centres unmarked) [PDoxC] (H-C(X1)YHWYGYTPERVI-OH; N-terminus and C-terminus assumed): the half-life is 12.7 h in [4] and 4 h in [5]. Besides, the IC50 in [6] is 2370 ± 550 nM; in series [1], 2750 ± 570 nM. In addition, the “IC50 ± SD” value in series [2] was “no toxicity”.
Take “YHWYGYTPENVI [Peptide 22, used FITC labeled in uptake assays]”: the “specific affinity for TNBC cells” value in [7] was “higher specific affinity”. Moreover, the “uptake by EGFR expressing TNBC cells compared to the lead GE11” value in series [8] is on record as 47-123 fold. Besides, the “uptake by noncancerous mammary epithelial cells” value in series [9] was “minimal uptake”. The “FITC-positive MDA-MB-231 cells” value in series [10] (FITC labeled peptide alone, without excess EGF) worked out at 99%; in series [10] (FITC labeled peptide in the presence of excess EGF protein), 2%.
Turning to YHWYGYTPKNVI [Peptide 26], in series [7], the “specific affinity for TNBC cells” value is given as “higher specific affinity”.
YHWYGYTPQDVI [Peptide 23]: the “specific affinity for TNBC cells” value in series [7] is on record as “higher specific affinity”.
Same read-out and setting: in the case of YHWYGYTPQKVI [Peptide 27] it was “higher specific affinity”.
With YHWYGYTPKNVI (made on a cellulose membrane by SPOT synthesis in the library screen) [peptide 26], in series [11], the binding result is reported as “binds”.
As to YHWYGYTPQDVI (made on a cellulose membrane by SPOT synthesis in the library screen) [peptide 23], the binding result in [11] was “binds”.
In the case of YHWYGYTPQKVI (made on a cellulose membrane by SPOT synthesis in the library screen, 12-mer derived from GE11 (N10K)) [peptide 27], the binding result in series [11] is “binds”.
